Patent publication US20090298781A1, “COMPOUNDS FOR THE INHIBITION OF APOPTOSIS” (CONSEJO SUPERIOR DE, priority 2005, published 2009)

Columns and labels:
Type in all cases: cell-based
Saos-2 cell line = experiment: MTT assay, toxicity (cell viability), Saos-2
Method: (§1) The MTT assay measures cell proliferation as well as reduction in cell viability when metabolic events lead to apoptosis or necrosis. It can also be used to assess the rate of survival of a given cell line when it is incubated in the presence of xenobiotics. The reduction of tetrazolium salts is accepted as a reliable way to analyse cell proliferation. The yellow tetrazolium MTT (3-(4,5-dimethylthiazolyl-2)-2,5-diphenyltetrazolium bromide) is reduced by metabolically active cells and results in the intracellular formation of purple formazan that can be spectrophotometrically measured after solubilisation with DMSO.
(§2) The MTT assay was used in this invention to assess the toxicity of compounds at different concentrations. To analyse their potential impairment in cell viability, compounds were added to Saos-2 and U937 cell lines at different concentrations and incubated at different times. Results are expressed by percentage cell viability.

U937 cell line = experiment: MTT assay, toxicity (cell viability), U937
Method: as §1, §2

Caspase activity, HeLa = experiment: Caspase inhibition assay, HeLa; details: Homo sapiens, 5 μM
Caspase activity, U2-OS = experiment: Caspase inhibition assay, U2-OS; details: Homo sapiens, U2OS, 5 μM
[1] = tested on: Caspase activity, U937 cell extracts; experiment: Caspase inhibition assay, U937 cell extracts; details: Homo sapiens, U-937, 5 μM
Method: The time-dependent inhibition of caspase induced by the compounds described in this invention was analysed. […] Caspase activity was assayed using Saos-2 or U937 cell extracts and Ac-DEVD-afc (N-acetyl-Asp-Glu-Val-Asp-afc(7-amino-4-trifluoromethyl coumarin)) as substrate (20 μM). Caspase activity was continuously monitored by the liberation of fluorescent afc using a Cytofluor 4000 fluorimeter (excitation 400 nm; emission 508 nm) for 1 hour. The effect of the compounds on the caspase activity was expressed as the percentage of inhibition in the fluorescence signal of treated cells vs. the non-treated cells (control).

| Compound | % Cell viability (Saos-2 cell line; Saos-2, 24 h, 1 μM) [%] | % Cell viability (Saos-2 cell line; Saos-2, 24 h, 5 μM) [%] | % Cell viability (Saos-2 cell line; Saos-2, 24 h, 10 μM) [%] | % Cell viability (Saos-2 cell line; Saos-2, 48 h, 1 μM) [%] | % Cell viability (Saos-2 cell line; Saos-2, 48 h, 5 μM) [%] | % Cell viability (Saos-2 cell line; Saos-2, 48 h, 10 μM) [%] | % Cell viability (U937 cell line; U937, 24 h, 1 μM) [%] | % Cell viability (U937 cell line; U937, 24 h, 5 μM) [%] | % Cell viability (U937 cell line; U937, 24 h, 10 μM) [%] | % Cell viability (U937 cell line; U937, 48 h, 1 μM) [%] | % Cell viability (U937 cell line; U937, 48 h, 5 μM) [%] | % Cell viability (U937 cell line; U937, 48 h, 10 μM) [%] | inhibition at 5 µM (Caspase activity, HeLa; 24 h) [%] | inhibition at 5 µM (Caspase activity, HeLa; 48 h) [%] | inhibition at 5 µM (Caspase activity, U2-OS; 24 h) [%] | inhibition at 5 µM (Caspase activity, U2-OS; 48 h) [%] | inhibition at 5 µM (Caspase activity, U2-OS; 72 h) [%] | inhibition at 5 µM ([1]; U937, 24 h) [%] | inhibition at 5 µM ([1]; U937, 48 h) [%] | inhibition at 5 µM ([1]; U937, 72 h) [%] | other results |
| --- | --- | --- | --- | --- | --- | --- | --- | --- | --- | --- | --- | --- | --- | --- | --- | --- | --- | --- | --- | --- | --- |
| NC(=O)CN(C(=O)C1CC(=O)N(CCc2ccc(Cl)cc2Cl)CC(=O)N1CCC(c1ccccc1)c1ccccc1)C1CC1 (centres unmarked) [I.2, 1-[2-(2,4-Dichlorophenyl)ethyl]-4-(3,3-diphenylpropyl)-3,7-dioxo[1,4]diazepane-5-carboxylic acid carbamoylmethylcyclopropylamide] | 100 | 99 | 99 | 100 | 100 | 91 | 100 | 100 | 97 | 100 | 99 | 83 | 1 | 46 | 0 | 54 | 27 | 0 | 3 | 0 | inhibition at 5 µM (Caspase activity, HeLa; 72 h): 59% |
| CC(=O)NCCNC(=O)CNC(=O)C1CC(=O)N(CCc2ccc(Cl)cc2Cl)CC(=O)N1CCC(c1ccccc1)c1ccccc1 (centres unmarked) [I.3, 1-[2-(2,4-Dichlorophenyl)ethyl]-4-(3,3-diphenylpropyl)-3,7-dioxo[1,4]diazepane-5-carboxylic acid (2-acetylaminoethyl)carbamoylmethylamide] | 97 | 93 | 100 | 100 | 100 | 100 | 100 | 95 | 95 | 100 | 100 | 98 | 9 | 21 | 1 | 29 | 22 | 12 | 16 | 1 | inhibition at 5 µM (Caspase activity, HeLa; 72 h): 29% |
| NC(=O)CN(CCc1ccc(Cl)cc1)C(=O)C1CC(=O)N(CCc2ccc(Cl)cc2Cl)CC(=O)N1CCC(c1ccccc1)c1ccccc1 (centres unmarked) [I.8, 1-[2-(2,4-Dichlorophenyl)ethyl]-4-(3,3-diphenylpropyl)-3,7-dioxo[1,4]diazepane-5-carboxylic acid carbamoylmethyl[2-(4-chlorophenyl)ethyl]amide] | 100 | 100 | 99 | 97 | 100 | 100 | 100 | 98 | 99 | 100 | 98 | 99 | 5 | 3 | 0 | 16 | 24 | 5 | 15 | 23 | inhibition at 5 µM (Caspase activity, HeLa; 72 h): 6% |
| NC(=O)CN(CCc1ccccc1F)C(=O)C1CC(=O)N(CCc2ccc(Cl)cc2Cl)CC(=O)N1CCC(c1ccccc1)c1ccccc1 (centres unmarked) [I.9, 1-[2-(2,4-Dichlorophenyl)ethyl]-4-(3,3-diphenylpropyl)-3,7-dioxo[1,4]diazepane-5-carboxylic acid carbamoylmethyl[2-(2-fluorophenyl)-ethyl]amide] | 100 | 96 | 82 | 97 | 76 | 66 | 100 | 98 | 88 | 93 | 69 | 59 | 0 | 0 | 0 | 34 | 61 | 3 | 4 | 63 | inhibition at 5 µM (Caspase activity, HeLa; 72 h): 41% |
| NC(=O)CN(CCc1ccc(F)cc1)C(=O)C1CC(=O)N(CCc2ccc(Cl)cc2Cl)CC(=O)N1CCC(c1ccccc1)c1ccccc1 (centres unmarked) [I.10, 1-[2-(2,4-Dichlorophenyl)ethyl]-4-(3,3-diphenylpropyl)-3,7-dioxo[1,4]diazepane-5-carboxylic acid carbamoylmethyl[2-(4-fluorophenyl)ethyl]amide] | 76 | 100 | 91 | 100 | 100 | 100 | 96 | 99 | 89 | 100 | 98 | 99 | 1 | 6 | 0 | 22 | 64 | 0 | 5 | 2 |  |
| CCCCN(CC(N)=O)C(=O)C1CC(=O)N(CCc2ccc(Cl)cc2Cl)CC(=O)N1CCC(c1ccccc1)c1ccccc1 (centres unmarked) [I.11, 1-[2-(2,4-Dichloro-phenyl)ethyl]-4-(3,3-diphenylpropyl)-3,7-dioxo[1,4]diazepane-5-carboxylic acid butyl-carbamoylmethylamide] | 100 | 98 | 82 | 100 | 91 | 74 | 100 | 95 | 79 | 98 | 89 | 75 | 14 | 0 | 0 | 31 | 50 | 11 | 0 | 4 | inhibition at 5 µM (Caspase activity, HeLa; 72 h): 62% |
| NCCCCC(NC(=O)CN(CCc1ccc(Cl)cc1Cl)C(=O)C1CC(=O)N(CCc2ccc(Cl)cc2Cl)CC(=O)N1CCC(c1ccccc1)c1ccccc1)C(N)=O (centres unmarked) [IIa.2, 1-[2-(2,4-Dichlorophenyl)ethyl]-4-(3,3-diphenyl-propyl)-3,7-dioxo[1,4]diazepane-5-carboxylic acid [(5-amino-1-carbamoylpentylcarbamoyl)methyl]-[2-(2,4-dichlorophenyl)ethyl]amide] | 98 | 100 | 77 | 100 | 97 | 98 |  |  |  |  |  |  |  |  |  |  |  | 23 | 11 | 5 | % Cell viability (Saos-2 cell line; Saos-2, 24 h, 25 μM): 25%; % Cell viability (Saos-2 cell line; Saos-2, 24 h, 50 μM): 10%; % Cell viability (Saos-2 cell line; Saos-2, 48 h, 25 μM): 11% |
